Values of other authors, collected in patent publication US20050004105A1, “Treatment for a attention-deficit hyperactivity disorder” (priority 2003, published 2005).
Counter-ions that a name gives are not always drawn. Like-named read-outs stand apart in the source and are kept apart here.

What was measured:
5-HT1B/1D receptor [1] = conditions: [3H]5-CT […] or 2 nM in cortex; exemplary protocol; read-out: Ki of reference compound, 5-HT1B/1D binding assay; cited from earlier work
5-HT1B/1D receptor [2] = conditions: [125I]iodocyanopindolol 0.15 nM in striatum; exemplary protocol; read-out: Ki of reference compound, 5-HT1B/1D binding assay; cited from earlier work
α1 receptor = conditions: rat forebrain membranes, [3H]7-MeOxy-prazosin; exemplary protocol; read-out: Ki of reference compound, α1 binding assay; cited from earlier work

NCCc1c[nH]c2ccc(C(N)=O)cc12 [5-CT, 5-carboxyamidotryptamine]
Ki (5-HT1B/1D receptor [1]): 0.7 to 1.1 nM

NCCc1c[nH]c2ccc(O)cc12 [5-HT]
Ki (5-HT1B/1D receptor [2]): ~13.8 nM

Cc1ccc(N(CC2=NCCN2)c2cccc(O)c2)cc1 [phentolamine mesylate]
Ki (α1 receptor): ~5.4 nM
